ChEMBL document CHEMBL1201862, “PubChem BioAssay data set” (2004)
Active and inactive are the calls of the source.

Columns and labels:
[1] = target: T1, Microphthalmia-associated transcription factor (Homo sapiens, UniProt O75030); assay: TRPM1 promoter luciferase signal decrease, dose response, MITF inhibitor project, cell-based, SK-MEL-5, cherry-picked, set 3 (AID 493073); assay type: functional
T1 sequence (O75030 whole entry): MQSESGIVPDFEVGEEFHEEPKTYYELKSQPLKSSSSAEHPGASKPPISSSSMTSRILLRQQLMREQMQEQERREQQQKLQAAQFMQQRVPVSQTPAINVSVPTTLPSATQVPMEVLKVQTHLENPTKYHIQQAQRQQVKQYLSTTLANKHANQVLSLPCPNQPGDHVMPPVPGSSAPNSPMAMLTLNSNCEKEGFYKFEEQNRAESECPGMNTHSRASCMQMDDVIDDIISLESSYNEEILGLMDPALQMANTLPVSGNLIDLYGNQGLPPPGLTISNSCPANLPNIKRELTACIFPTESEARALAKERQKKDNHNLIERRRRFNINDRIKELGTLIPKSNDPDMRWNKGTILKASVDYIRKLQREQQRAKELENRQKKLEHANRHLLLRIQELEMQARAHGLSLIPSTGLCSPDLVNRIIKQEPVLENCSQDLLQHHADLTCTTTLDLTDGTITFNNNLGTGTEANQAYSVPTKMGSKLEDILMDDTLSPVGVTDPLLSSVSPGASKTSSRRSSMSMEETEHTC

[2] = target: T2, Replicative DNA helicase DnaB (Mycobacterium tuberculosis, UniProt P9WMR3); assay: DnaB intein splicing inhibitors, dose response, biochemical, cell-free fluorescence (AID 449749); assay type: functional
T2 sequence (P9WMR3 whole entry): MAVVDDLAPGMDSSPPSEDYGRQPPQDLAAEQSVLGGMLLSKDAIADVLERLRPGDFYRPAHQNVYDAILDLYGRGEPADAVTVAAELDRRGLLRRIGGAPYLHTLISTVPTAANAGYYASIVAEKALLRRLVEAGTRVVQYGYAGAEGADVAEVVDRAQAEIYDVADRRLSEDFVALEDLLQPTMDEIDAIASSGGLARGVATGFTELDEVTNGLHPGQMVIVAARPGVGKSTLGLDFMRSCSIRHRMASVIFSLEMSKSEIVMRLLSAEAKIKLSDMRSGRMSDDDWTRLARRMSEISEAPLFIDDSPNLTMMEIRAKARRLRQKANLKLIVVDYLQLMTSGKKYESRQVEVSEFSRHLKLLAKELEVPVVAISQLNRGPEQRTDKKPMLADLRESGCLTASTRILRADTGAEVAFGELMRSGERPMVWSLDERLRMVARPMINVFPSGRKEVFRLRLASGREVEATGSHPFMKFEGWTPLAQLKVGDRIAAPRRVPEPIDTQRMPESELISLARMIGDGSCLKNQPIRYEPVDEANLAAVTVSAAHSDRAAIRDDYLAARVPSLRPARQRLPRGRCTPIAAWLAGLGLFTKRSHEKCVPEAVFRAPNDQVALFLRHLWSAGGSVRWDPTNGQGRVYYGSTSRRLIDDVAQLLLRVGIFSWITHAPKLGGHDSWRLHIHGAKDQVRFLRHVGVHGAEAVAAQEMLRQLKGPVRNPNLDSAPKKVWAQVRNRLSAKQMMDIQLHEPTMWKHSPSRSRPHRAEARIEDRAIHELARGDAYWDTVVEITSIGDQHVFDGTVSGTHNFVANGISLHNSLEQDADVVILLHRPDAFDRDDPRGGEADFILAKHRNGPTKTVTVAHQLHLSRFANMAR

Protein RecA = target: T3, Protein RecA (Mycobacterium tuberculosis, UniProt P9WHJ3); assay: Fluorescence Cell-Free Homogeneous Dose Retest to Identify Inhibitors of RecA-Intein Splicing Activity. [Related pubchem assays (depositor defined):AID2097, AID2223, AID489010, AID492950]; assay type: functional
T3 sequence (P9WHJ3 whole entry): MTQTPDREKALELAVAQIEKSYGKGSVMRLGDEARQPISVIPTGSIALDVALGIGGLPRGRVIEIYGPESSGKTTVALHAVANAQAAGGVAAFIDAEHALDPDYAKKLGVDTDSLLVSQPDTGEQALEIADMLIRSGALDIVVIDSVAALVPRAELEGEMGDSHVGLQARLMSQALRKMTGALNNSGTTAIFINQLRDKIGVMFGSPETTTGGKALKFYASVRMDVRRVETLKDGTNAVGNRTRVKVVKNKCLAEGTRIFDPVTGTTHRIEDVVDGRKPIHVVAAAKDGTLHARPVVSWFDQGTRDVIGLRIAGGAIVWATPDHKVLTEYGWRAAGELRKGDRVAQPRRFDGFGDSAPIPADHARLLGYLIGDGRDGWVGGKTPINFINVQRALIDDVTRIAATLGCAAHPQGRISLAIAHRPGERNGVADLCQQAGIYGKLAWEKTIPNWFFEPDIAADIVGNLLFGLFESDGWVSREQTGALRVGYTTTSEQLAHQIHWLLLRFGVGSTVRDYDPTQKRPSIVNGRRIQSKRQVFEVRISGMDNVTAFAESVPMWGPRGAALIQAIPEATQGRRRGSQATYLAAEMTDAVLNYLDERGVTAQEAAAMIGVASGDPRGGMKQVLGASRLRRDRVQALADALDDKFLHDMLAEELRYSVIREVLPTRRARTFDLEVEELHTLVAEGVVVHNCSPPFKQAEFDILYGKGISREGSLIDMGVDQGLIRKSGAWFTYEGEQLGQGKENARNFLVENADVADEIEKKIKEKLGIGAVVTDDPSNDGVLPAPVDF

[3] = target: Mitochondrial peptide methionine sulfoxide reductase (Bos taurus, UniProt P54149); assay: Absorbance-based biochemical high throughput dose response assay for activators of Methionine sulfoxide reductase A (MsrA).; assay type: functional
Mitochondrial peptide methionine sulfoxide reductase, sequence (P54149 whole entry): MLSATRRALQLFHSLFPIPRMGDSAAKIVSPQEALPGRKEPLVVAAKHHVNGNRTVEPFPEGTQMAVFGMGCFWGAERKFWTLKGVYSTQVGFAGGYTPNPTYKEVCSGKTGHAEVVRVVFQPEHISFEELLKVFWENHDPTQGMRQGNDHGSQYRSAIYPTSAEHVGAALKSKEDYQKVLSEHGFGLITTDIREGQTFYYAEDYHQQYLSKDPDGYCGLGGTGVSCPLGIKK

[4] = target: T4, Calpain-2 catalytic subunit (Sus scrofa, UniProt P43367); assay: pig calpain II inhibitor potency, dose response, biochemical, fluorogenic peptide substrate (AID 1420); assay type: functional
T4 sequence (P43367 whole entry): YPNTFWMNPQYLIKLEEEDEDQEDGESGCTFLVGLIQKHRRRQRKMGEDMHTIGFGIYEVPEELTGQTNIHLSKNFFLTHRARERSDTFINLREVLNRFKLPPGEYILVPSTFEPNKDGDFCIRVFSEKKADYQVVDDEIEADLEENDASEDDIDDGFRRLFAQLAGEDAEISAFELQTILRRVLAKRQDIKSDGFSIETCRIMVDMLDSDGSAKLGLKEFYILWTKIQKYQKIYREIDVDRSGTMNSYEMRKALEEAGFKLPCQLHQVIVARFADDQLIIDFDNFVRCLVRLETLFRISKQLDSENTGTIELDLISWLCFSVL

[5] = target: Potassium voltage-gated channel subfamily KQT member 2 (Rattus norvegicus, UniProt O88943); assay: KCNQ2 potassium channel inhibitors, dose response, cell-based, automated electrophysiology, set II, rat KCNQ2 (AID 588637); assay type: functional
Potassium voltage-gated channel subfamily KQT member 2, sequence (O88943 whole entry): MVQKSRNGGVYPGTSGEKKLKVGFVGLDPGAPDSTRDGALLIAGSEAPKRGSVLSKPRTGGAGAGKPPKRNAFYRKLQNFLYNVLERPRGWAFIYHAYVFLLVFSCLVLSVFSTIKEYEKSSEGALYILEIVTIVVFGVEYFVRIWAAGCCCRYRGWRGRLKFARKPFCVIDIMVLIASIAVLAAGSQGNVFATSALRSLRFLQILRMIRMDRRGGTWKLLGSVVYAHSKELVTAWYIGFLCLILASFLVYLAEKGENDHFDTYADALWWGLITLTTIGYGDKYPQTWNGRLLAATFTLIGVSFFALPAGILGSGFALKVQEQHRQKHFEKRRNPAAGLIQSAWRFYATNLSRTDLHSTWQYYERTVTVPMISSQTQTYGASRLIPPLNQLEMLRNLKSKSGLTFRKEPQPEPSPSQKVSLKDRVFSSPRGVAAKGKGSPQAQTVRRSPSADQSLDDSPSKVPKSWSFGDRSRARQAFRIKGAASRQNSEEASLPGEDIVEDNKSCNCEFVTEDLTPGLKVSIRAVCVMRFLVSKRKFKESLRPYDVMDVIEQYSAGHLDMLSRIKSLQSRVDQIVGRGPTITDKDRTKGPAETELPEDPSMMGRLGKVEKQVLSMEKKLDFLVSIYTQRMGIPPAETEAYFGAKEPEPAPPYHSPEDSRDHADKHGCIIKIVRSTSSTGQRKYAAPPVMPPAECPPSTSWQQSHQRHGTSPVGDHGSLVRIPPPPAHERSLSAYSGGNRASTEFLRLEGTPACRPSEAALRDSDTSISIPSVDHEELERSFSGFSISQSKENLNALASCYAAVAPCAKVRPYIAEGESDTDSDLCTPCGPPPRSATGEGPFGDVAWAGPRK

[6] = target: T5, High affinity choline transporter 1 (Homo sapiens, UniProt Q9GZV3); assay: CHT inhibitors, dose response, cell-based, 5-point CRC, membrane potential dye (AID 504840); assay type: functional
T5 sequence (Q9GZV3 whole entry): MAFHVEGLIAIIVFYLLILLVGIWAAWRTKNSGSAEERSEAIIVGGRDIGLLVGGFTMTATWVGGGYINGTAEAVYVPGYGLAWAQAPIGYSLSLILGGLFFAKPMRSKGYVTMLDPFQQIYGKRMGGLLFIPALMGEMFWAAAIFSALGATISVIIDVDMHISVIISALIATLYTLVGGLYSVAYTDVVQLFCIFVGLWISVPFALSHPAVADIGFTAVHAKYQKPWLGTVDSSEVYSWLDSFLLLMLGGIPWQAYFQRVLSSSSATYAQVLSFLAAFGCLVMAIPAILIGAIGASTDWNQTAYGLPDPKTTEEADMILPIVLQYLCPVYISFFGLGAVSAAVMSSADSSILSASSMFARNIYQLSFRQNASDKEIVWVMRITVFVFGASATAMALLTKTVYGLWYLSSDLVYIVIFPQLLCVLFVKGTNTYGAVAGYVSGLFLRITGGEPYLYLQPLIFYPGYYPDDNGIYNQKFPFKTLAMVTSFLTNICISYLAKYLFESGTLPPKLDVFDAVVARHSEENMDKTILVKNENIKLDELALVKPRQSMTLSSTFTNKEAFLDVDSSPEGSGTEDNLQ

[7] = target: T5, High affinity choline transporter 1; assay: inhibitors of CHT choline uptake, dose response, cell-based, 3H-choline uptake, CHT LV-AA trafficking mutant, CRC (AID 602208); assay type: functional
[8] = target: T5, High affinity choline transporter 1; assay: CHT inhibitors, dose response, cell-based, 10-point CRC, membrane potential dye (AID 588401); assay type: functional;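 also: membrane potential dye fluorescence of choline-evoked depolarization via CHT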
[9] = target: Latent membrane protein 1 (Human herpesvirus 4 (strain B95-8), UniProt P03230); assay: TES1-eGFP NF-kB reporter inhibition versus Tet-On dsRED, dose response, selectivity assay for LMP1 NF-kB inhibitor project, imaging, HEK293T, dual-color eGFP/dsRED, cherry-picks (AID 588398); assay type: functional, cell-based
Latent membrane protein 1, sequence (P03230 whole entry): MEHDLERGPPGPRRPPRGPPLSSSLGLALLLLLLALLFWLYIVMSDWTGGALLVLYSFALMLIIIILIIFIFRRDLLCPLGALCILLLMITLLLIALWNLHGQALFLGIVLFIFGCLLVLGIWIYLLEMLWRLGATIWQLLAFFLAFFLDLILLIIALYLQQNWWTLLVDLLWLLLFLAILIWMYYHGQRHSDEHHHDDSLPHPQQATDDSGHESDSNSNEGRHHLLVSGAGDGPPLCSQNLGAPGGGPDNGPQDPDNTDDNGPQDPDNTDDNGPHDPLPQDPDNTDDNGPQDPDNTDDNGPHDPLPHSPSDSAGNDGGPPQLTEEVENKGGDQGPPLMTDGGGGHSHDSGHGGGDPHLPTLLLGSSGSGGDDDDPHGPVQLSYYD

HEK293 = assay: inhibitors of LMP1-driven NF-kB reporter, dose response, cell-based, HEK293, luciferase, cherry-pick (AID 588343); assay type: functional; conditions: Homo sapiens
Vero = assay: cells; assay type: functional; conditions: Chlorocebus sabaeus
[10] = target: Beta-2 adrenergic receptor (Homo sapiens, UniProt P07550); assay: beta2AR agonists driving receptor internalization, dose response, cell-based, FAP fluorogen, flow cytometry, cherry pick 1 (AID 588763); assay type: functional
Beta-2 adrenergic receptor, sequence (P07550 whole entry): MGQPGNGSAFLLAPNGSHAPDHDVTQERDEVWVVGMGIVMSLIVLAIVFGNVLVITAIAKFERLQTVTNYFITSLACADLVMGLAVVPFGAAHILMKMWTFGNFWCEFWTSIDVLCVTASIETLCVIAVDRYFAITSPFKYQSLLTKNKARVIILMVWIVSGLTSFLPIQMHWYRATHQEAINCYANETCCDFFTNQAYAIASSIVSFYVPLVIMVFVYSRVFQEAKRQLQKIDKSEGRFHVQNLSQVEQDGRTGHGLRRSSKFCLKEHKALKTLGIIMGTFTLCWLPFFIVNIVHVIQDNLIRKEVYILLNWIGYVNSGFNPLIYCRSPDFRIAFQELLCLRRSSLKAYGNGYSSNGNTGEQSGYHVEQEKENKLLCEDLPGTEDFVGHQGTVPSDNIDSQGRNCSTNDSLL

Phospholipase D1 = Phospholipase D1 (Homo sapiens, UniProt Q13393); assay: PLD1 inhibitor potency in cells, dose response (AID 602151); assay type: functional;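 also: cellular PLD1 assay in Calu-1 cells stimulated with PMA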
Phospholipase D1, sequence (Q13393 whole entry): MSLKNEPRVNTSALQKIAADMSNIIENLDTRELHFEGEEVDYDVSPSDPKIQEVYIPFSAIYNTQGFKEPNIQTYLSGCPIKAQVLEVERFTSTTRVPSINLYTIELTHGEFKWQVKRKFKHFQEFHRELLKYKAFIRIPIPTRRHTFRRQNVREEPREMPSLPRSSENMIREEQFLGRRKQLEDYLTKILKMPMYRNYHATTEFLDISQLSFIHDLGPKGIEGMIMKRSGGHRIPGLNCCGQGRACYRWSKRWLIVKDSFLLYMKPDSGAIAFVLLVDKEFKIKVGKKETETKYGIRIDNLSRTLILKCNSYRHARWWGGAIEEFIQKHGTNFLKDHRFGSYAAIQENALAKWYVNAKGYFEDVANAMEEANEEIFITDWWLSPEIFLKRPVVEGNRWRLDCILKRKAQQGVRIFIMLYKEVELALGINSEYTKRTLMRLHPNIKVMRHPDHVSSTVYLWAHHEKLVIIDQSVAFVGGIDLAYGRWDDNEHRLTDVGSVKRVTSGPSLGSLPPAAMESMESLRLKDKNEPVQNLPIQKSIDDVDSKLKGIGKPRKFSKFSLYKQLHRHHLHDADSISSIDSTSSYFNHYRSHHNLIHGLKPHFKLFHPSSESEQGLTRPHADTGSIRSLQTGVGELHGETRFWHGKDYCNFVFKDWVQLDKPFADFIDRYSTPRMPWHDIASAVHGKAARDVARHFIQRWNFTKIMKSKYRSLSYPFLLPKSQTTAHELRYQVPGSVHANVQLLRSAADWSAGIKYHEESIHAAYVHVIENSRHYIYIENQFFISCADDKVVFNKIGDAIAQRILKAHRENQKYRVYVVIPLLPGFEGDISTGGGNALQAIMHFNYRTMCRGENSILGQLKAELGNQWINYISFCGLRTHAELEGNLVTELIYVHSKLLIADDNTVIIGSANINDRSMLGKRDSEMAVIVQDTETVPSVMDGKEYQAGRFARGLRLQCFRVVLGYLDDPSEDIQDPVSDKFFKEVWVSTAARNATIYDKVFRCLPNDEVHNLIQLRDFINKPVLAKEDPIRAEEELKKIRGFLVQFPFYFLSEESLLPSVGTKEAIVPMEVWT

Phospholipase D2 = Phospholipase D2 (Homo sapiens, UniProt O14939); assay: PLD2 inhibitor potency in cells, dose response (AID 602147); assay type: functional;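 also: cellular assay in HEK293 cells overexpressing GFP-tagged PLD2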
Phospholipase D2, sequence (O14939 whole entry): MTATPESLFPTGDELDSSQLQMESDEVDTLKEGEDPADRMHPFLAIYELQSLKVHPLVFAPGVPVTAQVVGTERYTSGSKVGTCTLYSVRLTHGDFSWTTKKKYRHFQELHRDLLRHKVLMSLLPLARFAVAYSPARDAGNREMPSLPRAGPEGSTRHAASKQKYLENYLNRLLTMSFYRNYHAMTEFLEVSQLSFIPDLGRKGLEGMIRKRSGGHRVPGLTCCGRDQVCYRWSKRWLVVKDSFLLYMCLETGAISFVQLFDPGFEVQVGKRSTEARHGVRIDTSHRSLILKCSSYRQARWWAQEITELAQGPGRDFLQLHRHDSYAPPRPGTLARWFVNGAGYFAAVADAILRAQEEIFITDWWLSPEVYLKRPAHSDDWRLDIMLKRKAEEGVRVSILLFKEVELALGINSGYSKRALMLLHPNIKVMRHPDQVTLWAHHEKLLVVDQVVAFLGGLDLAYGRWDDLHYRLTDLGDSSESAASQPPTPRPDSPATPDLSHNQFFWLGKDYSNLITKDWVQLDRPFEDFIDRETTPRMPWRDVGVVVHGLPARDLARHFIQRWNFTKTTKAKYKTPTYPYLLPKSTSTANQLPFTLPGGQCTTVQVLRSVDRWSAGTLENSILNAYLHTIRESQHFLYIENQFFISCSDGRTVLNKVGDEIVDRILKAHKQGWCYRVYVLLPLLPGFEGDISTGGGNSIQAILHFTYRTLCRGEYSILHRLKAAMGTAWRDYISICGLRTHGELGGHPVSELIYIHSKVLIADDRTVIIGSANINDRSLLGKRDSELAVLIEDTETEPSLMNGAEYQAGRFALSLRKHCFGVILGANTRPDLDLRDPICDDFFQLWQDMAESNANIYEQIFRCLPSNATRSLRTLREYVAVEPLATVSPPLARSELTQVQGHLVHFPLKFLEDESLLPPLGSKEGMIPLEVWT

[11] = cytotoxicity in HEK-293T cells, dose response, cytotoxicity control for BCR NF-kB inhibitor project, luminescence, B-cell screen hits (AID 489021); assay type: functional, cell-based;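 also: HEK-293T cells carrying an NF-kB luciferase reporter; cells exposed to compound for about 14 hours before viability readout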

With `CCNC1=C(Cl)C(=O)c2ccccc2C1=O` the AC50 [1] was 3.84 µM (active), the AC50 [2] was 6.98 µM (active) and the EC50 (Protein RecA) was 20 µM (active). The EC50 [3] was > 104 µM (inactive) and the IC50 [4] was > 50 µM (not active).
In the case of `COc1cc(C(=O)Nc2cccc(C)c2C)c(Br)c(OC)c1OC`, the IC50 [5] is reported as 0.633 µM (active).
In the case of `COc1ccc(C(=O)NC(C)Cc2cnccn2)cc1OC1CCN(C(C)C)CC1` (stereo not drawn), the IC50 [6] is reported as 9.9 µM (active), the IC50 [7] is reported as 7.51 µM (active) and the IC50 [8] is reported as 4.47 µM (active).
In the case of `O=C1/C(=C/c2ccncc2)SC(=S)N1Cc1ccccc1`, the AC50 [9] is reported as 30.1 µM (active), the AC50 (HEK293) is reported as 0.678 µM (active) and the CC50 (Vero) is reported as > 25 µM (active).
With `CC1(C)Cc2c(c(N3CCOCC3)nc3sc4c(NCCN)ncnc4c23)CO1` the EC50 [10] was 0.158 µM (active).
In the case of `CC(C)[C@@H](CN1CCC(n2c(=O)[nH]c3ccccc32)CC1)NC(=O)c1ccc2ccccc2c1`, the IC50 (Phospholipase D1) is reported as 5.6 µM (active) and the IC50 (Phospholipase D2) is reported as 20 µM (active).
In the case of `COc1cc(-c2[nH]c(C(=O)NCC3CCCO3)cc3c4ccccc4nc2-3)cc(OC)c1OC` (stereo not drawn), the AC50 [9] is reported as 44.3 µM (active), the AC50 (HEK293) is reported as 37.8 µM (active) and the IC50 [11] is reported as 51.8 µM (inactive).
